Here are results for three compounds from patent publication US8436155B2, “7,2″-dehydrate puerarin and its salts, preparation method and use thereof” (Shandong University, priority 2010, dated 2013).

Test [1] has as its system rat arrhythmias. As to the kind of experiment: Antiarrhythmic experiment: arrhythmia induced by 0.1% BaCl2 in rats, ECG monitored for 30 min. The test is classed as in vivo, Wistar rats. Conditions: for Arrhythmia duration: if not restored within 30 min, the record was 30 min. The method, then: 1. Method: 60 male, healthy adult Wistar rats with body weight of 180-220 g were randomly divided into 6 groups, i.e., a normal saline group, a propylene glycol solvent gavage group, a propylene glycol solvent intravenous injection group, a puerarin injection group, a 7,2″-dehydrate puerarin gavage group, and a 7,2″-dehydrate puerarin intravenous injection group, with 10 rats each group. The intravenous injection was carried out one time a day for three consecutive days. The gavage was carried out two times a day for three consecutive days. The normal saline group was administered with equal volume of 0.9% NaCl injection. The dose of the propylene glycol solvent gavage group was 14.3% propylene glycol 1 mL/100 g. The dose of the propylene glycol solvent intravenous injection group was 40% propylene glycol 0.5 mL/100 g. The dose of the puerarin injection group was 50 mg/kg. The dose of the 7,2″-dehydrate puerarin gavage group was 60 mg/kg. The dose of the 7,2″-dehydrate puerarin intravenous injection group was 30 mg/kg. The rats were anesthetized with 10% chloral hydrate (0.35 mL/100 g) by intraperitoneal injection and fixed in the back. A BL-410 biological functional system was introduced to monitor the ECG changes of the rats. A femoral vein of the rats was exposed, a scalp needle inserted, and a constant speed syringe pump connected. 0.1% BaCl2 was pumped with a dose of 0.1 mL/100 g and a speed of 0.6 mL/min. From the injection of BaCl2 on, the ECGs were monitored and recorded within 30 min. The arrhythmia latency and arrhythmia duration were recorded (if not restored within 30 min, the record was 30 min). The experimental results were collected and analyzed using Software SPSS. If P<0.05, the results has significant difference.

The test system of test [2] is rabbit blood coagulation. As to the kind of experiment: Anticoagulation experiment in vitro: coagulation time of oxalated rabbit blood after adding CaCl2. Conditions: 37±0.5° C., x ± SD. The method, then: 1. Method: A rabbit was weighed and injected with 3% sodium pentobarbital 1 mL/kg via an ear vein, and then anaesthetized. […] The resulting solution was shaken uniformly and put into a constant temperature water bath (37±0.5° C.). Every 30 seconds, the small test tubes were tilted slightly once, and the coagulation time was recorded (the test tubes were tilted slightly, if no blood bled, the time was recorded as coagulation time). The experimental results were collected and analyzed using Software SPSS. If P<0.05, the results has significant difference.

In test [3] the test system is platelet aggregation. Conditions: in vitro, dose-dependent; read-out: IC50, inhibition on platelet aggregation in vitro; cited from earlier work.

In test [1] (puerarin injection group, 50 mg/kg), `O=c1c(-c2ccc(O)cc2)coc2c([C@@H]3O[C@H](CO)[C@@H](O)[C@H](O)[C@H]3O)c(O)ccc12` [Puerarin] gave an Arrhythmia duration of 30 min. This compound came in with an Arrhythmia latency in test [1] (puerarin injection group, 50 mg/kg, once a day for three days, x ± SD) of 86.75 ± 42.55 s. Also, the coagulation time in test [2] (3 mg/mL) amounted to 15.3 ± 2.4 min.

In the case of `O=c1c(-c2ccc(O)cc2)coc2c3c(ccc12)O[C@@H]1[C@@H](O)[C@H](O)[C@@H](CO)O[C@@H]31` [7,2″-dehydrate puerarin], the Arrhythmia latency in test [1] (gavage, 60 mg/kg, two times a day for three days, x ± SD) amounted to 29.25 ± 5.12 s; in test [1] (intravenous injection, 30 mg/kg, once a day for three days, x ± SD), 47.25 ± 19.87 s. Moreover, the Arrhythmia duration in test [1] (gavage, 60 mg/kg, x ± SD) was 2.09 ± 0.98 min; in test [1] (intravenous injection, 30 mg/kg, x ± SD), 17.75 ± 4.61 min. The coagulation time in test [2] (0.75 mg/mL (low dose)) was found to be 14.7 ± 1.6 min; in test [2] (1.5 mg/mL (medium dose)), 22.7 ± 2.6 min; in test [2] (3 mg/mL), 38.5 ± 2.1 min.

Turning to `CC(=O)Oc1ccccc1C(=O)Oc1ccc2c(=O)c(-c3ccc(O)cc3)coc2c1[C@@H]1O[C@H](CO)[C@@H](O)[C@H](O)[C@H]1O` [7-acetylsalicylic acyl puerarin], the concentration for half-maximal inhibition (IC50) in test [3] was 910 µM.
